Source: patent US10426772B2, “Use of ergot alkaloids as an anthelmintic agent” (priority 2016, dated 2019)

What was measured:
[1] = target: T1, Sm.5HTR (Schistosoma mansoni, UniProt G4V5G4); format: cell-based
Procedure: (§1) HEK293 cells (ATCC CRL-1573.3) were cultured in DMEM supplemented with 10% fetal bovine serum (FBS), penicillin (100 units/mL), streptomycin (100 μg/mL), and L-glutamine (290 μg/mL). Cells were transiently transfected (ViaFect, Promega) as per the manufacturer's protocol at a density of 2×10^6 cells per T-25 cell-culture flask. Cells were transfected with plasmids encoding GloSensor (Promega) and either Sm.5HTR, (Smp_126730, GenBank accession number KF444051.1) or Sm.5HTRL (KX150867), both GPCRs being codon optimized for mammalian expression, or Hs.5HT7a (GenBank accession number NM_000872.4, R&D Systems) subcloned into pCS2(−). Cell culture reagents were from Invitrogen. Epitope tagged constructs were used to verify expression, and untagged constructs used for all luminescence assays.
(§2) For assays performed on adherent cells, HEK-293 cells were transferred one day post transfection to 96 well, solid white plates (Corning, cat #3917) coated with 0.01% poly-L-lysine (Sigma Aldrich) at a density of 5×10^4 cells/well in DMEM supplemented with 1% dialyzed FBS (Gibco). After overnight culture (37° C./5% CO2), media was decanted and replaced with 100 μL/well HBSS supplemented with 0.1% BSA, 20 mM HEPES (pH 7.4) and GloSensor™ reagent. Plates were allowed to equilibrate at room temperature for two hours prior to performing luminescence assays (GloMax-Multi Detection System plate reader, Promega). Conditions for individual assays were described as per figure legends. The standard assay to detect changes in cAMP utilized the F22 sensor in media supplemented with IBMX (200 μM). Ligands were added at a concentration of 20× per well for experiments (i.e., 5 μl of drug solution added to 100 μL of cells). […] For the resazurin reduction assay for cellular viability, cells were incubated with resazurin (final concentration, 10 μM) and tested ligands with fluorescence measurements (560 nm excitation/590 nm emission) made at 1.5 hours intervals.
(§3) The protocol for screening is shown schematically in FIG. 5A. HEK293 cells transiently transfected with either the human 5HT7 receptor (Hs.5HT7R) or the schistosome receptor (Sm.5HTR) were exposed to test ligands in a 96-well plate format. […] Luminescence was then read at a fixed time point (t=60 minutes, FIG. 5A). Hits were assigned as compounds that evoked a ≥50% decrease in luminescence output at the fixed time sampling point (FIG. 5B).

[2] = target: T1, Sm.5HTR; format: cell-based; settings: 10 μM for 30 minutes, washout, 5-HT response 1 hour later (FIGS. 11B-D)
Procedure: Colors correspond to drug identity in C&D. Data represent mean±s.e.m., n=3 (C-E).
To test putative irreversible antagonists, assays on suspension cells were performed one day post transfection. Cells in a T-75 flask were trypsinized (0.25% w/v) and transferred to a 14 mL tube, centrifuged at 300 RCF, and resuspended in HBSS supplemented with 0.1% BSA, 20 mM HEPES. Compounds were added at 10 μM, and after 30 minutes incubation at room temperature cells were centrifuged (300 RCF, 5 minutes) and resuspended in fresh media. This wash step was repeated, and cells were resuspended in HBSS supplemented with 0.1% BSA, 20 mM HEPES and GloSensor reagent. […]

[3] = test system: S. mansoni; test: Hepatic shift assay in infected mice; format: in vivo, Schistosoma mansoni; settings: intraperitoneal, ergotamine 95, praziquantel 100, methylergometrine 50, lisuride 10, dihydroergotoxine 60 mg/kg, euthanized three hours later
Procedure: Female Swiss Webster mice were exposed to 200 S. mansoni cerceria (NMRI strain) at between 4-6 weeks old. For hepatic shift assays, infections were allowed to mature to 7 weeks, at which point mice were given test compounds by intraperitoneal injection and euthanized […]. Compounds were solubilized in 50 μL DMSO, and diluted in 200 μL 5% w/v trappsol (Cyclodextrin Technologies Development, THPB-p-31 g)+saline (NaCl 0.9%) solution. Immediately after being euthanized, mice were dissected to remove the liver from the portal vein, and the number of worms recovered from the portal vein, mesenteries and liver was recorded for each mouse.
Several experiments using a murine model of schistosomiasis were carried out in order to test the anthelmintic efficacy of Sm.5HTR ligands in vivo. First, the acute effect of drugs were assessed using a “heptic-shift” assay; mature parasites normally reside within the mesenteric vasculature, and upon exposure to anthelmintics they dislodge and are swept to the liver^12,13 where they may be cleared from the host^14 (FIG. 20B-F).
Given that the current anthelmintic therapy, praziquantel, disrupts worms and results in a rapid shift from the mesenteric vasculature to the liver (Melhorn et al., 1981) (FIG. 20B-F), it was hypothesized that Sm.5HTR ligands that disrupt parasite movement would cause a similar hepatic shift. Compounds were delivered by intraperitoneal injection and mice were euthanized three hours later in order to quantify the number of worms found in the mesentaries, portal vein or liver.

[4] = target: Sm.5HTR (Schistosoma mansoni, UniProt A0A173FEI8); test: cell-based
Procedure: HEK293 cells (ATCC CRL-1573.3) were cultured in growth media consisting of DMEM supplemented with GlutaMAX (Gibco cat #10566016)+10% heat inactivated fetal bovine serum and penicillin-streptomycin (100 units/mL, ThermoFisher). Stable cell lines for the pGloSensor-22F cAMP Plasmid (Promega) and schistosome 5HTRs in pcDNA3.1(−) were selected with hygromycin (200 μg/mL) and G418 (400 μg/mL). The correct identity of each stably expressed sequence was verified by isolating total RNA from each stable line (TRIzol Reagent, Ambion) and amplifying the sequence of interest with gene specific primers flanking the 5′ and 3′ regions of the cds (SuperScript® III One-Step RT-PCR System, Invitrogen). PCR products were ligated into a TA cloning vector (pGEM-T Easy, Promega) and sequenced.
HEK293 lines stably expressing both the 22F cAMP sensor and Sm.5HTR were cultured in growth media supplemented with 10% dialyzed FRS. For cAMP assays in 96 well format, cells cultured in T-75 flasks were trypsinized (TrypLE Express, Gibco) and plated in solid white 96 well plates (Costar cat #3917) the day prior to assay at a density of 2.5×10^4 cells/well. The following day media was removed and replaced with assay buffer consisting of HBSS buffered with HEPES (20 mM, pH 7.4)+BSA (0.1% w/v) and D-luciferin sodium salt (1 mg/mL, Gold Biotechnology). Plates were equilibrated at room temperature for 1 hour, at which point 3-Isobutyl-1-methylxanthine (IBMX 200 μM, Sigma Aldrich) was added. Plates were equilibrated a further 30 minutes prior to test compound addition. […] Readings performed in 384 well format were modified so that cells were assayed in suspension. Cells were grown to 70% confluence in T-75 flasks, trypsinized and pelleted (300 RCF×5 minutes). Media was removed and cells were resuspended in 25 mL assay buffer supplemented with IBMX (200 μM). A 96 channel semi-automated pipet (Eppendorf epMotion 96) delivered 55 μL of cell suspension per well (5000 cells/well) into solid white 384 plates (Corning 3574).

[5] = test system: adult schistosomes; test: Egg laying assay, adult schistosome pairs in vitro; format: cell-based, Schistosoma mansoni; settings: serotonin 100 μM, forskolin 100 μM, LSD 10 μM, nuciferine 10 μM, ergotamine 5 μM (FIG. 19F); eggs per worm pair/day over five days
Excerpt: (§4) Female Swiss Webster mice infected with S. mansoni cerceria (NMRI strain) were sacrificed 49 days post infection by CO2 euthanasia. Adult schistosomes were recovered by perfusion with a solution of 0.85% sodium chloride+0.75% sodium citrate and dissection of the mesenteric vasculature. Harvested schistosomes were washed in RPMI 1640 Medium with GlutaMAX+5% heat inactivated FBS (Gibco) and Penicillin-Streptomycin (final concentration 100 units/mL, ThermoFisher cat #15140122).
For egg laying assays, adult schistosomes were transferred to 24 well plates the day after harvesting from mice (5 worm pairs in 2 mL media per well). Eggs were counted under a stereomicroscope daily, after which worms were transferred to a new well with fresh drug containing media. Egg counts were recorded for five days, and data processed as the mean number of eggs laid per worm pair/day. Measurements of egg dimensions were quantified using the “analyze>measure” function in ImageJ to record the length and width of individual eggs.

[6] = test system: adult S. mansoni; test: Movement assay of cultured adult S. mansoni (Example 2); format: cell-based; settings: Schistosoma mansoni; for IC50: read-out: IC50, inhibition of serotonin evoked schistosome movement
Excerpt: as §4
For movement assays, worms were cultured 37° C./5% CO2 in vented 100×25 mm petri dishes (ThermoFisher cat #4031) containing 50 mL of media and used between 1-3 days after harvesting. Prior to assessing worm movement, individuals were transferred to a six well dish (4-5 individuals per well) containing 3 mL drug solution in RPMI 1640 supplemented with HEPES (25 mM) and MS (5%). Videos were recorded using a Zeiss Discovery v20 stereomicroscope and a QiCAM 12-bit cooled color CCD camera controlled by metamorph imaging software (version 7.8.1.0). 1 minute recordings were acquired at 4 frames per second, saved as a .TIFF stack, and movement was analyzed using ImageJ software as described in (PMID: 27187180, PMID: 27397763).

[7] = test system: S. mansoni schistosomules; test: Schistosomule contractility assay; format: cell-based; settings: Schistosoma mansoni, read-out: IC50, inhibition of 5-HT evoked contractions
Procedure: FIGS. 14A-14F. […] Effects of selected ligands on schistosomules. […] A contractile cycle is defined when a deviation of ≥20% of the average body length (dashed lines) occurs.
Biomphalaria glabrata (M-line) snails exposed to Schistosoma mansoni miracidia (Strain PR-1) were obtained from BEI Resources (Cat. number NR-21961) and cercaria were shed following exposure to light (1.5 hours). Cercaria were manually transformed into schistosomula by vortexing (3×45 seconds, each separated by 3 minutes on ice) and tails were removed by gradient centrifugation (24 mL Percoll, 4 mL 10×EMEM, 1.5 ml penicillin-streptomycin, 1 mL of 1M HEPES in 0.85% NaCl, 9.5 ml distilled water) at 500 g/15 minutes at 4° C. Supernatant containing tails was discarded, and schistosomules were resuspended in Basch media and incubated (37° C., 5% CO2) overnight before conducting mobility assays. For contractility experiments, somules were incubated in 5-HT free Basch media to resolve a basal contractility rate. […] Schistosomules were incubated in 24 well plates (about 200 schistosomules/0.5 mL media per well) for 30 minutes (37° C./5% CO2) prior to acquiring videos of schistosome movement (1 minute recordings/well) using a Nikon Coolpix 5700 camera affixed to a Nikon Eclipse TS100 microscope (10× objective). The WrmTrck plugin for ImageJ was used to quantify worm mobility (El-Shehabi et al., 2012). Briefly, the major axis of each schistosomule body length was extracted from the raw output of WrmTrck and an average length was determined for the duration of the recording. Contractions were quantified by determining the number of episodes during which the worm body length deviated from the average by over 20%. S. mansoni protocols were approved by the Iowa State University Institutional Biosafety Committee.

[8] = target: T2, Hs.5HT7R (Homo sapiens, UniProt P34969); test: GloSensor cAMP assay, HEK293 cells transiently transfected with Hs.5HT7R; format: cell-based; settings: inhibition of cAMP generation
T2 construct: host or cells: HEK293 (ATCC CRL-1573.3), transient, pCS2(−), co-transfected with GloSensor
Procedure: as §1, §2, §3

[9] = target: Sm.5HTRL (Schistosoma mansoni, UniProt A0A173FEI8); test: GloSensor cAMP assay, HEK293 cells transiently transfected with Sm.5HTRL; format: cell-based
Procedure: as §1, §2

T1 sequence (G4V5G4 entry or part of it): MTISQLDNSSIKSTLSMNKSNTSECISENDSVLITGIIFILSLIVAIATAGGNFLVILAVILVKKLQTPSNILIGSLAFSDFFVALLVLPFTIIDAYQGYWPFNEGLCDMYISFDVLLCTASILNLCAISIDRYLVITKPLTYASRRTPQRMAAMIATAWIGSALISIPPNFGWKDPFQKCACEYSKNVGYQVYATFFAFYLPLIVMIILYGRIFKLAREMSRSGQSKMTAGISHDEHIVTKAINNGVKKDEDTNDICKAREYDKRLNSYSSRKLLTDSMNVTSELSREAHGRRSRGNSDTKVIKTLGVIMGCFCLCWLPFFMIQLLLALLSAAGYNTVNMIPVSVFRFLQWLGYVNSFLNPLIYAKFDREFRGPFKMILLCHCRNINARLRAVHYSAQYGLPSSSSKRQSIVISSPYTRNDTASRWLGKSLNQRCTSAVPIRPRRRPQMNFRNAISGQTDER
Sequence of Sm.5HTR (Schistosoma mansoni, UniProt A0A173FEI8) (A0A173FEI8 entry or part of it): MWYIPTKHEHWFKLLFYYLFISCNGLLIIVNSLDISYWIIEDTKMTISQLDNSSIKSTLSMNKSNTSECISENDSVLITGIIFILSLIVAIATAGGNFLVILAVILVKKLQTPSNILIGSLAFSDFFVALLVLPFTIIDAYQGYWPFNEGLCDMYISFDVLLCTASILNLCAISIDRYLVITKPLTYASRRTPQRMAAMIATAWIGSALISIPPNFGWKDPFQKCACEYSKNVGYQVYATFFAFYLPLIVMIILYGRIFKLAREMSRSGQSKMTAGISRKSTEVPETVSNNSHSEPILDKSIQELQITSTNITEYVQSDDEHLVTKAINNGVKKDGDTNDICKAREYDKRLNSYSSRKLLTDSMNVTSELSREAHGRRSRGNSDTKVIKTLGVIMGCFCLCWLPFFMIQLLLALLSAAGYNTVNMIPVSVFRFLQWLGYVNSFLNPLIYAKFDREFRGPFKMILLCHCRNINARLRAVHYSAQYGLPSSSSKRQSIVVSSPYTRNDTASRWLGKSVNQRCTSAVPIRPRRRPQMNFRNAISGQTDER
Sequence of Sm.5HTRL (A0A173FEI8 entry or part of it): as above
T2 sequence (P34969 1-445 isoform P34969-2): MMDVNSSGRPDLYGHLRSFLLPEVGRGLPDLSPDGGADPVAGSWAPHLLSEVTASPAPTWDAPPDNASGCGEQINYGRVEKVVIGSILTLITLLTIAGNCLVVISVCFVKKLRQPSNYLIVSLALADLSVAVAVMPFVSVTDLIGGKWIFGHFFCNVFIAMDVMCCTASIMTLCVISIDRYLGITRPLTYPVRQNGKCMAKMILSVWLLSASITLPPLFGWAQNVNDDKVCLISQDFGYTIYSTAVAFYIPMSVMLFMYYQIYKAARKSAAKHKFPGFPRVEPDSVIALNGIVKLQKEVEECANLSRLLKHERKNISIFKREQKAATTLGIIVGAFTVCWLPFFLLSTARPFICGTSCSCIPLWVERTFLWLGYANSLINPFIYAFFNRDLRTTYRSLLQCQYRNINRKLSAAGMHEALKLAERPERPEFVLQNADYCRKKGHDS

CSc1ccc2c(c1)C(N1CCN(C)CC1)Cc1ccccc1S2 (centres unmarked) [methiothepin]
antagonism of 5-HT stimulated cAMP generation ([1]; methiothepin 10 μM preincubation, 5-HT 10 μM, IBMX 200 μM (FIG. 2G)): antagonism of 5-HT stimulated cAMP generation
persistence of Sm.5HTR inhibition after antagonist wash-out [2]: long-lasting inhibition

CCN(CC)C(=O)N[C@H]1C=C2c3cccc4[nH]cc(c34)C[C@H]2N(C)C1 [lisuride]
% of worm burden found in the liver [3]: no difference relative to control animals

CCN(CC)C(=O)[C@@H]1C=C2c3cccc4[nH]c(Br)c(c34)C[C@H]2N(C)C1 [BOL-148, 2-bromo-lysergic acid diethylamide]
IC50 ([4]; 5-HT 500 nM, read-out: Sm.5HTR IC50 (antagonist)): 100 ± 20 nM
agonist activity at Sm.5HTR, in words ([4]; FIG. 18C): Agonist activity is eliminated
decrease of egg laying [5]: no effect
IC50 [6]: 29 ± 23 nM

CC[C@@H](CO)NC(=O)[C@@H]1C=C2c3cccc4[nH]cc(c34)C[C@H]2N(C)C1 [methylergometrine]
Emax ([4]; HEK293, agonist read, 45 minutes, read-out: Sm.5HTR Emax): 50 ± 17%
% of worm burden found in the liver [3]: 50.6±28.5%

CC(C)C[C@H]1C(=O)N2CCC[C@H]2[C@]2(O)O[C@](NC(=O)[C@@H]3C=C4c5cccc6[nH]c(Br)c(c56)C[C@H]4N(C)C3)(C(C)C)C(=O)N12 [bromocriptine]
higher selectivity for the parasitic 5-HT receptor ([1]; Sm.5HTR over Hs.5HT7R): about 10 fold
potency (IC50) at Sm.5HTR, lower right quadrant of FIG. 13 ([1]; inhibition of cAMP generation): sub-μM potency
IC50 [7]: ≤ 1000 nM
potency (IC50) at Hs.5HT7R, lower right quadrant of FIG. 13 [8]: supra-μM potency
IC50 [6]: 251 ± 67 nM

Cc1nc2n(c(=O)c1CCN1CCC(c3noc4cc(F)ccc34)CC1)CCCC2 [risperidone]
persistence of Sm.5HTR inhibition after antagonist wash-out [2]: long-lasting inhibition

NCCc1c[nH]c2ccc(O)cc12 [5-HT, Serotonin]
decrease of egg laying [5]: 83%
EC50 ([6]; FIG. 19B, read-out: EC50, stimulation of adult schistosome movement): 52000 ± 2000 nM
EC50 ([9]; 5-HT dose response, FIG. 2H, read-out: EC50, activation of Sm.5HTRL): 200 ± 30 nM
greater sensitivity of Sm.5HTRL compared with Sm.5HTR ([9]; ratio of 5-HT EC50): about 10 fold

CN1C[C@H](CNC(=O)OCc2ccccc2)C[C@@H]2c3cccc4c3c(cn4C)C[C@H]21 [metergoline]
agonist efficacy at Sm.5HTR, in words ([1]; FIG. 10A): no efficacy
Kb ([1]; antagonism of 5-HT evoked cAMP accumulation, FIG. 10F, read-out: affinity constants (KB), Schild regression analysis): 4530 nM
nature of antagonism: right-shift in the 5-HT dose-response relationship ([1]; increasing doses of ligand, FIGS. 10B-D): competitive antagonism
persistence of Sm.5HTR inhibition after antagonist wash-out [2]: long-lasting inhibition
